Reference: patent US10739353B2, “Suppression of cytokine release and cytokine storm” (SignPath Pharma Inc., priority 2014, dated 2020)
In brackets after ≈: the same amount, converted by molar mass. Entries after “also recorded” stand apart in the source; their conditions may differ. Where two headings read alike, the source gives them in different places.

What was measured:
QT interval = conditions: cited from earlier work
[1] = mice, cited from earlier work; for brain cytokine levels after TBI: cytokines named in value
[2] = rats, cited from earlier work; for brain / tissue cytokine levels after TBI: cytokines named in value
[3] = cited from earlier work; for clinical outcome in patients with TBI: patient trials
[4] = randomized phase II trial, acute stroke, vs control group; cited from earlier work
IL-1β and TNF-α = conditions: intraperitoneal, 3 hours after injury; cited from earlier work
coxsackie virus = conditions: Song et al; cited from earlier work
Other Key Cytokines = conditions: cited from earlier work
EBOV(Zaire) = assay: microbe, parasite or virus in culture; type: cell-based; conditions: Zaire ebolavirus, HeLa, 48 h, read-out: EC50 (anti-EBOV activity)
H1N1 virus = conditions: in culture; cited from earlier work
cytokine release = conditions: cited from earlier work
[5] = tested on: HIV-1, HIV-2, HSV, HPV, HTLV-1, HBV, HCV, and Japanese encephalitis virus; conditions: cited from earlier work
IL-6, TNF-α and MCP-1 = conditions: streptozotocin rats; cited from earlier work
Interleukins = conditions: cited from earlier work
SOCS proteins = conditions: cited from earlier work
[6] = Solubility in organic solvents; type: physicochemical
From the text: Comparison of PLGA C3-complex-curcumin vs PLGA S-curcumin indicated the following differences. The solubilities of 99.2% S-Curcumin in all four solvents. […] This confers improved manufacturing capability, and attributes to different pharmacokinetics and pharmacodynamics in in vivo settings (Table 3). [table]

[7] = rats; cited from earlier work
[8] = tested on: rat cerebellar granule cells; conditions: toxic doses of glutamate (Bachis et al); cited from earlier work
[9] = phase II trial, 20 patients with severe TBI (Helmy et al)

In the case of CCCCCCCCc1ccc(CCC(N)(CO)CO)cc1 [Fingolimod], the QT interval (QT interval; patients with relapsing multiple sclerosis, through inhibition of the hERG current) is listed as “causes QT prolongation”.

For Cc1cc(-c2ccccc2)nnc1N1CCN(c2ncccn2)CC1 [MW151], the “brain damage / neurological outcome after TBI” value [1] is given as “improvement in neurologic functioning” and the “brain cytokine levels after TBI” value [1] is given as “restored abnormal cytokine levels to normal”.

In the case of etanercept, the “brain damage / neurological outcome after TBI” value [2] is listed as “reduced neuronal and glial apoptosis and microglial activation; also recorded: increased 5-bromodeoxyuridine and doublecortin markers in the injured brain”, the “brain / tissue cytokine levels after TBI” value [2] is listed as “reducing the increased levels of TNF-α” and the neurological function ([3]; medical records of 617 patients with stroke and 12 with TBI, no control group (Tobinick et al)) is listed as “Marked improvement in neurological function”.

For “tocilizumab: an IL-6 blocker; anti-IL-6 antibody”, the QT interval (QT interval; patients with rheumatoid arthritis) is given as “shortening of the duration of the previously prolonged QT interval”.

In the case of “IL-1RA: IL-1 receptor antagonist; human recombinant IL-1RA is a medication for rheumatoid arthritis”, the “loss of cognitive function” value [4] is given as “less loss of cognitive function”, the “brain damage / neurological outcome after TBI” value [1] is given as “reduced lesion volume” and the “brain damage / neurological outcome after TBI” value [2] is given as “No effect was seen at low doses; also recorded: decreased neuronal loss”. For the same molecule, the “brain / tissue cytokine levels after TBI” value [2] was “reduced tissue IL-1β levels”, the “clinical outcome in patients with TBI” value [3] was “unable to conclude that IL-1RA administration resulted in therapeutic benefit” and the “crossing of the blood-brain barrier” value [3, 9] was “does cross the blood-brain barrier”. For the same molecule, the safety [3, 9] was “safe”.

For CC(C)c1nc(N(C)S(C)(=O)=O)nc(-c2ccc(F)cc2)c1/C=C/[C@@H](O)C[C@@H](O)CC(=O)O [rosuvastatin], the “plasma cytokine levels in patients with TBI” value ([3]; 10 days of rosuvastatin, 19 patients vs 17 controls) is listed as “dramatic decrease in plasma levels of TNF-α; also recorded: No effect was seen on IL-1β, IL-6 or IL-10” and the “clinical outcome in patients with TBI” value [3] is listed as “reduction in amnesia time; also recorded: no difference in disability at 3 months; also recorded: improvement in disability scores”.

In the case of CC(C(=O)O)c1ccc2c(c1)[nH]c1ccc(Cl)cc12 (centres unmarked) [Carprofen], the “brain damage / neurological outcome after TBI” value [1] is listed as “improve neurological functioning” and the “brain cytokine levels after TBI” value [1] is listed as “markedly reduce IL-1β and IL-6”.

In the case of “TSG-6: TNF-α stimulated gene/protein 6, an anti-inflammatory agent”, the “brain damage / neurological outcome after TBI” value [1] is listed as “decreased lesion size and improved neurological recovery”.

For CC(=O)[C@H]1CC[C@H]2[C@@H]3CCC4=CC(=O)CC[C@]4(C)[C@H]3CC[C@]12C [progesterone], the “brain damage / neurological outcome after TBI” value [2] is given as “improved motor skills, decreased cerebral edema and decreased mortality; also recorded: reducing apoptosis of brain tissue; also recorded: better results on the Neurological Severity Score Test”, the “brain / tissue cytokine levels after TBI” value [2] is given as “reduced brain levels of IL-6 at 24, 48 and 72 hours; also recorded: decreased levels of IL-1β, IL-6 and TNF-α in the brain; also recorded: reduced brain levels of TNF-α and NF-κB” and the “favorable outcome on the Glasgow outcome scale” value ([3]; SYNAPSE trial, 1195 patients with severe TBI) is given as 50.4%. The “IL-1β and TNF-α” value (IL-1β and TNF-α) was “reduce IL-1β and TNF-α”.

In the case of COc1cc(C=CC(=O)CC(=O)C=Cc2ccc(O)c(OC)c2)ccc1O [Curcumin, 1,7-bis(4-hydroxy-3-methoxyphenyl)-1,6-heptadiene-3,5-dione], the “coxsackie virus-induced myocardial damage” value (coxsackie virus) is given as “protected against coxsackie virus-induced severe myocardial damage”, the “expression of IL-1β, IL-6 and TNF-α and NF-κB” value (coxsackie virus) is given as “reduced expression” and the “Effect on GROα (CXCL1)” value (Other Key Cytokines) is given as “↓ GROα”. For the same molecule, the “Effect on GROβ (CXCL2)” value (Other Key Cytokines) was “↓ GROβ”, the “Effect on IP-10 (CXCL10)” value (Other Key Cytokines) was “↓ IP-10” and the “Effect on Interferon γ” value (Other Key Cytokines) was “↓ Interferon γ”. The “Effect on MCP-1 (CCL2)” value (Other Key Cytokines) was “↓ MCP-1”, the “Effect on MIP-1α (CCL3)” value (Other Key Cytokines) was “↓ MIP-1α” and the “Effect on SDF-1 (CXCL12)” value (Other Key Cytokines) was “↓ SDF-1”. The “Effect on TNF-α” value (Other Key Cytokines) was “↓ TNF-α”, the EC50 (EBOV(Zaire)) was 6.5 ± 0.5 µg/mL (≈ 17.6 µM) and the “activity against the H1N1 virus” value (H1N1 virus) was “specific activity”. For the same molecule, the “release of IL-1” value (cytokine release; bone marrow stromal cells, colonic epithelial cells and human articular chondrocytes) was “block the release”, the “release of IL-2, IL-12, Interferon-γ” value (cytokine release) was “prevents release” and the “release of IL-8” value (cytokine release; human esophageal epithelial cells and alveolar epithelial cells) was “block the release”. For the same molecule, the “IL-1β, IL-8, TNF-α, MCP-1 and MIP-1α release” value (cytokine release; monocytes and macrophages (Abe et al)) was “suppresses”, the “release of IL-6, IL-8, TNF-α and MCP-1” value (cytokine release; monocytes cultured in a high glucose environment (Jain et al)) was “markedly reduced” and the “release of IL-6” value (cytokine release; rheumatoid synovial fibroblasts) was “block the release”. For the same molecule, the activity against viruses [5] was “activity against numerous viruses”, the “levels of IL-6, TNF-α and MCP-1” value (IL-6, TNF-α and MCP-1) was “markedly reduced” and the “Effect on IL-1” value (Interleukins) was “↓ IL-1”. The “Effect on IL-2” value (Interleukins) was “↓ IL-2”, the “Effect on IL-4” value (Interleukins) was “↓ ↑ IL-4” and the “Effect on IL-5” value (Interleukins) was “↓ IL-5”. The “Effect on IL-6” value (Interleukins) was “↓ IL-6”, the “Effect on IL-8” value (Interleukins) was “↓ IL-8” and the “Effect on IL-10” value (Interleukins) was “↑ IL-10”. The “Effect on IL-11” value (Interleukins) was “↓ IL-11”, the “Effect on IL-12” value (Interleukins) was “↓ IL-12” and the “Effect on IL-13” value (Interleukins) was “↓ IL-13”. For the same molecule, the “Effect on IL-17” value (Interleukins) was “↓ IL-17” and the “effect on SOCS proteins” value (SOCS proteins) was “stimulate”.

In the case of CC(C)[C@]12O[C@H]1[C@@H]1O[C@]13[C@]1(O[C@H]1C[C@H]1C4=C(CC[C@@]13C)C(=O)OC4)[C@@H]2O [Triptolide], the “brain damage / neurological outcome after TBI” value [2] is given as “reduce neuronal apoptosis” and the “brain / tissue cytokine levels after TBI” value [2] is given as “suppress IL-1β, IL-6 and TNF-α, to increase IL-10 levels”.

In the case of COc1cc(/C=C/C(=O)CC(=O)/C=C/c2ccc(O)c(OC)c2)ccc1O [Batch-C100609, diferuloylmethane], the “1 g of solvent solubilize in solvent” value ([6]; Acetone) is reported as 23.6 mL, the “Conc.” value ([6]; Acetone) is reported as 42300 µg/mL and the “Physical appearance of solubility” value ([6]; Acetone) is reported as “Fully”. For the same molecule, the “1 g of solvent solubilize in solvent” value ([6]; Acetonitrile) was 184 mL, the “Conc.” value ([6]; Acetonitrile) was 5440 µg/mL and the “Physical appearance of solubility” value ([6]; Acetonitrile) was “Partial”. The “1 g of solvent solubilize in solvent” value ([6]; Ethanol) was 263 mL, the “Conc.” value ([6]; Ethanol) was 3804 µg/mL and the “Physical appearance of solubility” value ([6]; Ethanol) was “Partial”. For the same molecule, the “1 g of solvent solubilize in solvent” value ([6]; Ethyl acetate) was 96.2 mL, the “Conc.” value ([6]; Ethyl acetate) was 10400 µg/mL and the “Physical appearance of solubility” value ([6]; Ethyl acetate) was “Partial”. For the same molecule, the “solubility compared with C3 complex” value ([6]; normalized to equal concentrations, Ethanol, Ethyl acetate, Acetone, Acetonitrile) was “greater solubility”.

B1: IL-10: the most important anti-inflammatory cytokine (protein, UniProt P22301 19-178, looked up)
Interleukin-10: SPGQGTQSENSCTHFPGNLPNMLRDLRDAFSRVKTFFQMKDQLDNLLLKESLLEDFKGYLGCQALSEMIQFYLEEVMPQAENQDPDIKAHVNSLGENLKTLRLRLRRCHRFLPCENKSKAVEQVKNAFNKLQEKGIYKAMSEFDIFINYIEAYMTMKIRN
In the case of B1, the “brain damage / neurological outcome after TBI” value [2] is given as “enhance neurological recovery; also recorded: Intracerebroventricular administration was not effective”, the “brain / tissue cytokine levels after TBI” value [2] is given as “reduce synthesis of IL-1” and the “cytokines and recovery after spinal cord injury” value [7] is given as “reduced TNF-α production and improved motor function”. The “caspase-3 and neuronal death” value [8] was “blocks caspase-3 and reduces neuronal death”.
